Test results as given in patent US11891374B2, “Derivatized benzimidazole compounds, their salts, their complexes, their pharmaceutical compositions and methods for using them for antigeriatric actions” (priority 2020, dated 2024).

What was measured:
[1] = test system: imidazoline receptors of all subtypes; settings: cited from earlier work
Drosophila fruit flies = settings: in vivo

Structure (SMILES) | concentration range of binding to imidazoline receptors [1] | MLS (day) Females (Drosophila fruit flies) | MLS (day) Males (Drosophila fruit flies) | extension of lifespan / MLS versus control (Drosophila fruit flies) | lifespan of Drosophila extended to (Drosophila fruit flies)
N=C(N)NCCCCN [Agmatine, N-(4-aminobutyl)guanidine] | 0.5 to 5 mM |  |  |  | 
Cc1cc(C)c2c(c1)nc(Cn1c3ccccc3c(=O)c3ccccc31)n2C [XVg] |  | 67 ± 9 days | 66 ± 9 days | ~3 fold | 70 days
